Target: T1, Progesterone receptor (Homo sapiens, UniProt P06401)
T1 sequence (P06401 whole entry): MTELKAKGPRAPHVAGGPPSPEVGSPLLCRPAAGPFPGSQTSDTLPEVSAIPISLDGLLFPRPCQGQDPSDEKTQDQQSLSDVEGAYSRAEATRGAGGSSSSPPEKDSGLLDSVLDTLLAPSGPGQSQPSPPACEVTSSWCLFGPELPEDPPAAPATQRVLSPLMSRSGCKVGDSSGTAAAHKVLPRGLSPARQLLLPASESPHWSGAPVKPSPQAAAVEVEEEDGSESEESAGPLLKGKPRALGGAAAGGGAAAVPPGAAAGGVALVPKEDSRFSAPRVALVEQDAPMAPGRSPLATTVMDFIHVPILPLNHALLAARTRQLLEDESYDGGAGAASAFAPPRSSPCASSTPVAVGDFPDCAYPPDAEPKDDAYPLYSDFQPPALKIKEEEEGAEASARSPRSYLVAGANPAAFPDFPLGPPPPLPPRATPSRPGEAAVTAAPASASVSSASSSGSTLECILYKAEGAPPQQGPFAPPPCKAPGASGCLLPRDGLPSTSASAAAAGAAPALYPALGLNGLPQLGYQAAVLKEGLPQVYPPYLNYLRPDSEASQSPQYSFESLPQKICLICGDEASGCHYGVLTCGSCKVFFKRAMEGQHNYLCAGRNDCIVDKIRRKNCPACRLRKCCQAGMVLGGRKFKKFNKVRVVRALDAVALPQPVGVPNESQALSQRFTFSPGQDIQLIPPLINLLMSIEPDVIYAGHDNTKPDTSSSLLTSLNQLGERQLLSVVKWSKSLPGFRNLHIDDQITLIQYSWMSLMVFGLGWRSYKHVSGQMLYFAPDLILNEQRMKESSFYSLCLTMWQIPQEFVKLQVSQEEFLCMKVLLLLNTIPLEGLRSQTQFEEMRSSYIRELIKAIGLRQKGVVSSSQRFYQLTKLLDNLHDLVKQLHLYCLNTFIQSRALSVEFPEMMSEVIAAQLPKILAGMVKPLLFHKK
Assay: Antagonist activity at progesterone receptor expressed in T47D cells assessed as inhibition of progesterone-induced alkaline phosphatase activity
Format: functional, cell-based

| SMILES | IC50 |
| --- | --- |
| CCC1(c2ccccc2)OC(=O)N(C)c2ccc(Nc3cccc(Cl)c3)cc21 (centres undefined) | 66.1 nM |
| CCC1(c2ccc(Cl)cc2)OC(=O)N(C)c2ccc(Nc3cccc(Cl)c3)cc21 (centres undefined) | 71.8 nM |
| CN1C(=O)OC(C)(C)c2cc(Nc3cccc(Cl)c3Cl)ccc21 | 56 nM |
| CCN1C(=O)OC(C)(C)c2cc(Nc3ccc(Br)cc3)ccc21 | 1000 nM |
| CCC1(CC)OC(=O)N(C)c2ccc(Nc3cc(F)cc(C#N)c3)cc21 | 14.5 nM |
| CC1(C)OC(=O)N(Cc2ccccc2)c2ccc(Nc3ccc(Br)cc3)cc21 | 3000 nM |
| CCC1(CC)OC(=S)N(C)c2ccc(Nc3ccc(F)c(F)c3)cc21 | 42.2 nM |
| CCC1(CC)OC(=O)N(C)c2ccc(Nc3cccc(Cl)c3Cl)cc21 | 5 nM |
| CCC1(CC)OC(=O)N(C)c2ccc(Nc3cccc(Cl)c3)cc21 | 13.1 nM |
| CC1(C)OC(=O)Nc2ccc(Nc3cccc(Cl)c3Cl)cc21 | 206 nM |
| CC(C)N1C(=O)OC(C)(C)c2cc(Nc3ccc(Br)cc3)ccc21 | 1000 nM |
| CCC1(CC)OC(=O)N(C)c2ccc(Nc3ccc(Cl)c(Cl)c3)cc21 | 29.8 nM |
| CCC1(CC)OC(=O)N(C)c2ccc(Nc3cc(F)cc([N+](=O)[O-])c3)cc21 | 8.4 nM |
| CCC1(c2cccs2)OC(=O)N(C)c2ccc(Nc3cccc(Cl)c3)cc21 (centres undefined) | 32.2 nM |
| CCC1(CC)OC(=O)N(C)c2ccc(Nc3ccc(F)c(Cl)c3)cc21 | 9 nM |

Next, values leading:

| IC50 | SMILES |
| --- | --- |
| 9.2 nM | CCC1(CC)OC(=O)N(C)c2ccc(Nc3ccc(F)c(C#N)c3)cc21 |
| 54.4 nM | CN1C(=O)OC(C)(C)c2cc(Nc3ccc(Br)cc3)ccc21 |
| 8.1 nM | CCC1(CC)OC(=O)N(C)c2ccc(Nc3cc(Cl)cc(Cl)c3)cc21 |
| 3000 nM | CC1(C)OC(=O)N(c2ccccc2)c2ccc(Nc3ccc(Br)cc3)cc21 |
| 27.4 nM | CCC1(CC)OC(=O)N(C)c2ccc(Nc3ccc(F)c(F)c3)cc21 |
| 30 nM | CN1C(=S)OC(C)(C)c2cc(Nc3ccc(Br)cc3)ccc21 |
| 1000 nM | CN1C(=O)OC(c2ccc(Cl)cc2)(c2ccc(Cl)cc2)c2cc(Nc3cccc(Cl)c3)ccc21 |
| 100 nM | CN1C(=O)OC(C)(C)c2cc(Nc3ccc(Cl)c(Cl)c3)ccc21 |
| 37.1 nM | CCC1(CC)OC(=O)N(C)c2ccc(Nc3ccc(C#N)c(F)c3)cc21 |

— ChEMBL document CHEMBL1138375, “SAR studies of 6-(arylamino)-4,4-disubstituted-1-methyl-1,4-dihydro-benzo[d][1,3]oxazin-2-ones as progesterone receptor antagonists” (Bioorg Med Chem Lett, 2007)
